# Measurements published in patent US20180332847A1, “ANTIMICROBIAL METAL CARBOXYLATE-BENZISOTHIAZOLINONE MIXTURES” (Troy Corporation, priority 2017, published 2018).
# Where two headings read alike, the source gives them in different places.
# Experiments:
# [1] = ingredient added at 1 mass % based on total mass of paint
# Protocol: Zinc chloride, zinc formate and zinc acetate were added to the acrylic paint formulation.
# Klebsiella pneumoniae = assay: Minimum Inhibitory Concentration (MIC) by spiral plater / spiral gradient endpoint against Klebsiella pneumoniae; assay type: cell-based; settings: quantity of calcium ethylhexanoate used alone that gives the desired effect
# Protocol: (§1) Synergistic Index=Qa/QA+Qb/QB [Equation No. 1] • where Qa=the quantity of component A used in a binary mixture that gives the desired effect • QA=the quantity of component A which when used alone gives the desired effect • Qb=the quantity of component B used in a binary mixture that gives the desired effect • QB=the quantity of component B which when used alone gives the desired effect
# (§2) Minimum Inhibitory Concentration (“MIC”) for each of the antimicrobial compositions was determined against a test microbe, which in this case was a spore suspension of the fungus Alternaria alternata, with the aid of an Autoplate 4000 spiral plater that is commercially available from Spiral Biotech, Inc., Norwood, Mass., and its accompanying spiral gradient endpoint software (hereinafter referred to as “the SGE software”). […]
# (§3) Inoculated spiral gradient plates were incubated for 48 hours in an incubator at 28° C. […] This growth endpoint value (expressed in mm as measured from center point of the Petri plate) was used to calculate MIC for the mixture, expressed as parts per million.
# Utilizing the procedure described above in Example 1, Minimum Inhibitory Concentration (“MIC”) for each of the antimicrobial compositions was determined against a test microbe, which in this case was a spore suspension of the bacteria Klebsiella pneumoniae. […]
# Alternaria alternata = assay: Minimum Inhibitory Concentration (MIC) by spiral plater / spiral gradient endpoint against Alternaria alternata; assay type: cell-based
# Protocol: as §1
# (§4) Minimum Inhibitory Concentration (“MIC”) for each of the antimicrobial compositions was determined against a test microbe, which in this case was a spore suspension of the fungus Alternaria alternata, with the aid of an Autoplate 4000 spiral plater that is commercially available from Spiral Biotech, Inc., Norwood, Mass., and its accompanying spiral gradient endpoint software (hereinafter referred to as “the SGE software”). The spiral plater automates the normal serial dilution method for determining MICs. Although the details of the SGE software are held confidentially by Spiral Biotech, Inc., they are believed to consistent with the principles set forth in “Measurement of MICs of antibacterial agents by spiral gradient endpoint compared with conventional dilution method” J. H. Paton, H. A. Holt, and M. J. Bywater—Int. J. Exp. Clin. Chemother, 1990.
# Spore suspensions for the test microbe were prepared by growing Alternaria alternata on a Difco malt agar slant in an incubator for 1 week at 28° C. Spores were loosened by adding a small amount of buffer solution at pH 7.0 and scraping with a sterile nichrome wire loop. This process was repeated twice. The buffer solution included phosphate buffer and magnesium chloride, and was obtained commercially from Thomas Scientific Company, as Lot #023-0703.
# Loosened spores were removed from the slant by aseptically pouring them into a sterile bottle containing 30 ml of the buffer solution and a volume of approximately 40 ml of 6 mm diameter borosilicate glass beads. The bead bottle was shaken to disperse the spores and adjusted to a final liquid volume of 50 ml. For use as a test inoculum, spore density was adjusted in distilled water blanks to that of a 0.5 McFarland nephelometer standard.
# (§5) The spiral plater automatically applied 54.3 micro-liters of each antimicrobial composition of interest to the surface of 150 millimeter malt agar plates using an exponential application gradient. The concentration of the antimicrobial concentration was greatest near the center of the Petri plates and decreased toward the edges. Antimicrobial composition gradients were allowed to air dry at room temperature for 1 to 4 hours at 23° C. before inoculation with test microbe. Spiral gradient plates were inoculated by streaking with cotton swabs that had been soaked in test microbe spore suspension. Streaks were applied in a radial pattern, using a paper template generated by the SGE software to guide the application. Eight radii were inoculated per Petri plate. Each radius is considered as one replicated observation.
# (§6) Inoculated spiral gradient plates were incubated for 48 hours in an incubator at 28° C. Visible growth of the test microbe developed along the radial streaks and ended where the concentration of the antimicrobial composition was sufficient to prevent growth. This growth endpoint value (expressed in mm as measured from center point of the Petri plate) was used to calculate MIC for the mixture, expressed as parts per million.
# Utilizing the procedure described above in Example 1, Minimum Inhibitory Concentration (“MIC”) for each of the antimicrobial compositions was determined against a test microbe, which in this case was a spore suspension of the […] Alternaria alternata.
# Saccharomyces cervisiae = assay: Minimum Inhibitory Concentration (MIC) by spiral plater / spiral gradient endpoint against Saccharomyces cervisiae; assay type: cell-based; settings: aqueous calcium gluconate-BIT compositions; MassCG:MassBIT: Trials 1,2 0:1; 3 1:3; 4,5 1:1; 6 3:1; 7,8 1:0
# Protocol: as §1, §2, §3
# Utilizing the procedure described above in Example 1, Minimum Inhibitory Concentration (“MIC”) for each of the antimicrobial compositions was determined against a test microbe, which in this case was a spore suspension of the yeast Saccharomyces cervisiae. […]
# Candida albicans = assay: Minimum Inhibitory Concentration (MIC) by spiral plater / spiral gradient endpoint against Candida albicans; assay type: cell-based; settings: for MIC (ppm) for Candida albicans: 3 1:3, 4,5 1:1, 6 3:1, 7,8 1:0; for QA: used for SI
# Protocol: as §1, §4, §5, §6
# Utilizing the procedure described above in Example, Minimum Inhibitory Concentration (“MIC”) for each of the antimicrobial compositions was determined against a test microbe, which in this case was a spore suspension of the yeast Candida albicans., as described above in Example 1. Several antimicrobial compositions containing calcium gluconate, BIT, or both in water were investigated, as shown below in Table 3
# Utilizing the procedure described above in Example 1, Minimum Inhibitory Concentration (“MIC”) for each of the antimicrobial compositions was determined against a test microbe, which in this case was a spore suspension of the yeast Candida albicans. Several antimicrobial compositions containing calcium glycerate, BIT, or both in water were investigated, as shown below in Table 11.
# Utilizing the procedure described above in Example 1, Minimum Inhibitory Concentration (“MIC”) for antimicrobial compositions was determined against a test microbe, which in this case was a spore suspension of the yeast Candida albicans. Several antimicrobial compositions containing calcium glycerate, BIT, or both in water were investigated, as shown below in Table 23.
# Utilizing the procedure described above in Example 1, Minimum Inhibitory Concentration (“MIC”) for each of the antimicrobial compositions was determined against a test microbe, which in this case was a spore suspension of the fungus Candida Albicans.
# Pseudomonas aeruginosa = assay: Minimum Inhibitory Concentration (MIC) by spiral plater / spiral gradient endpoint against Pseudomonas aeruginosa; assay type: cell-based; settings: 3 1:3, 4,5 1:1, 6 3:1, 7,8 1:0
# Protocol: as §1, §4, §5, §6
# Utilizing the procedure described above in Example 1, Minimum Inhibitory Concentration (“MIC”) for each of the antimicrobial compositions was determined against a test microbe, which in this case was a spore suspension of the bacterium Pseudomonas aeruginosa. Several antimicrobial compositions containing calcium gluconate, BIT, or both in water were investigated, as shown below in Table 7.
# Utilizing the procedure described above in Example 1, Minimum Inhibitory Concentration (“MIC”) for each of the antimicrobial compositions was determined against a test microbe, which in this case was a […] Pseudomonas aeruginosa. Several antimicrobial compositions containing calcium glycerate, BIT, or both in water were investigated, as shown below in Table 13.
# Utilizing the procedure described above in Example 1, Minimum Inhibitory Concentration (“MIC”) of certain antimicrobial compositions was determined against a test microbe, which in this case was a spore suspension of the bacterium Pseudomonas aeruginosa. Several antimicrobial compositions containing zinc gluconate, BIT, or both in water were investigated, as shown below in Table 19.
# [2] = tested on: mixed bacterial inoculum: Pseudomonas aeruginosa (ATCC #10145), Escherichia coli (ATCC #11229), Enterobacter aerogenes (ATCC #13048), Alcaligenes faecalis …; assay: Two-part bacterial challenge of acrylic latex paint samples with a mixed inoculum (performance ratings); assay type: cell-based; set-up: key to Performance Ratings Week 1, 1 Day / Performance Ratings Week 1, 2 Days / Performance Ratings Week 1, 8 Days / Performance Ratings Week 2, 1 Day / Performance Ratings Week 2, 2 Days / Performance Ratings Week 2, 8 Days: 0: No bacterial growth; 1: Trace of bacterial growth; 2: Light bacterial growth; 3: Moderate bacterial growth; 4: Heavy bacterial growth
# Protocol: In order to quantify the antibacterial effectiveness of an antimicrobial composition of interest, samples were prepared by adding various amounts of the antimicrobial composition to identical volumes of a paint that contained no preservatives and was not contaminated by bacteria. In this case, the test sample was a white, aqueous-based, acrylic latex paint. The paint included an acrylic resin, and conventional additives such as surfactant, thickener, defoamer, and titanium oxide.
# The samples of the paint were subjected to a two-part challenge procedure and the sample that provided acceptable anti-bacterial protection with the lowest concentration of the antimicrobial composition was identified. Each part of the anti-bacterial challenge consisted of a 7-day test cycle. The parts were performed consecutively over 14 test days.
# Challenge testing was accomplished using a mixed bacterial inoculum as the contamination event. These bacteria are Pseudomonas aeruginosa (ATCC #10145), Escherichia coli (ATCC #11229), Enterobacter aerogenes (ATCC #13048), and Alcaligenes faecalis (ATCC #25094). To prepare the test inoculum, each type of bacteria was harvested separately in nutrient broth. Just before use in the challenge test, equal strengths of each bacterial culture were mixed to obtain an inoculum of approximately 10^8 colony forming units per milliliter (cfu/mL).
# After incubation, both control blanks and samples containing preservatives of interest were inoculated with the mixed inoculum to a final of 1.0 weight %. […]
# Performance ratings of 0, 1, 2, 3 or 4 for each inoculated paint sample were determined by visual inspection of the streak lines, according to the definitions set forth below in Table 25.
# Escherichia coli = assay: Minimum Inhibitory Concentration (MIC) by spiral plater / spiral gradient endpoint against Escherichia coli; assay type: cell-based; settings: MIC of zinc gluconate alone for Escherichia coli (average of Trials 7, 8), used for SI
# Protocol: as §1, §4
# The spiral plater automatically applied 54.3 micro-liters of each antimicrobial composition of interest to the surface of 150 millimeter malt agar plates using an exponential application gradient. The concentration of the antimicrobial concentration was greatest near the center of the Petri plates and decreased toward the edges. […]
# as §3
# Utilizing the experimental procedure described above in Example 1, the MIC against Escherichia coli of several antibacterial compositions containing zinc gluconate, BIT, or both in water were determined.
# Staphylococcus aureus = assay: Minimum Inhibitory Concentration (MIC) by spiral plater / spiral gradient endpoint against Staphylococcus aureus; assay type: cell-based
# [3] = aqueous calcium gluconate-BIT compositions, MassCG:MassBIT: Trials 1,2 0:1
# [4] = aqueous calcium glycerate-BIT compositions, MassCGLY:MassBIT: Trials 1,2 0:1
# [5] = zinc glycerate (without BIT), zinc glycerate-BIT series
compound,measurement,setting,value
CC(=O)[O-].CC(=O)[O-].[Zn+2] [Zinc acetate],Observation (viscosity of conventional acrylic paint),[1],Paint gelled after mixing for
same,Observation (viscosity of conventional acrylic paint),[1]; listed as zinc acetate,caused the paint to gel
[Cl-].[Cl-].[Zn+2] [Zinc chloride],Observation (viscosity of conventional acrylic paint),[1],Paint gelled immediately
same,Observation (viscosity of conventional acrylic paint),[1]; listed as zinc chloride,caused the paint to gel
O=C[O-].O=C[O-].[Zn+2] [Zinc formate],Observation (viscosity of conventional acrylic paint),[1],Paint gelled immediately
same,Observation (viscosity of conventional acrylic paint),[1]; listed as zinc formate,caused the paint to gel
calcium ethylhexanoate,QA,Klebsiella pneumoniae,7.5 ppm
same,QA,"Alternaria alternata; quantity of calcium ethylhexanoate used alone that gives the desired effect (average of two trials), Alternaria alternata",7.5 ppm
calcium gluconate,MIC (ppm) for Saccharomyces cervisiae,Saccharomyces cervisiae,> 768 ppm
same,MIC (ppm) for Candida albicans,Candida albicans; [3],> 768 ppm
same,MIC (ppm) for Pseudomonas aeruginosa,Pseudomonas aeruginosa; [3],> 1127 ppm
same,MIC (ppm) for Pseudomonas aeruginosa,"Pseudomonas aeruginosa; aqueous zinc gluconate-BIT compositions, MassZG:MassBIT: Trials 1,2 0:1",> 2300 ppm
calcium glycerate,MIC (ppm) for Alternaria alternata,"Alternaria alternata; aqueous calcium glycerate-BIT compositions, MassCGLY:MassBIT: Trials 1,2 0:1, 3 1:3, 4,5 1:1, 6 3:1, 7,8 1:0",> 788 ppm
same,MIC (ppm) for Candida albicans,Candida albicans; [4],> 768 ppm
same,MIC (ppm) for Pseudomonas aeruginosa,Pseudomonas aeruginosa; [4],> 1230 ppm
zinc ethylhexanoate,QA,"Alternaria alternata; MIC of zinc ethylhexanoate alone for Alternaria alternata, used for SI",>780 ppm
same,amount required to prevent growth of Alternaria alternata (MIC),"Alternaria alternata; zinc ethylhexanoate (without BIT), average of two trials",> 780 ppm
same,QA,Candida albicans; MIC of zinc ethylhexanoate alone for Candida albicans,>780 ppm
zinc gluconate,"Performance Ratings Week 1, 1 Day","[2]; 5000 ppm in acrylic latex paint, Week 1, 1 Day after inoculation",4
same,"Performance Ratings Week 1, 2 Days","[2]; 5000 ppm in acrylic latex paint, Week 1, 2 Days after inoculation",4
same,"Performance Ratings Week 1, 8 Days","[2]; 5000 ppm in acrylic latex paint, Week 1, 8 Days after inoculation",4
same,"Performance Ratings Week 2, 1 Day","[2]; 5000 ppm in acrylic latex paint, Week 2, 1 Day after inoculation",4
same,"Performance Ratings Week 2, 2 Days","[2]; 5000 ppm in acrylic latex paint, Week 2, 2 Days after inoculation",4
same,"Performance Ratings Week 2, 8 Days","[2]; 5000 ppm in acrylic latex paint, Week 2, 8 Days after inoculation",4
same,bacterial stability test,"[2]; conventional latex paint with 5000 ppm of zinc gluconate added, mixed inoculum, two 7-day cycles",fails
same,QA,Escherichia coli,565 ppm
zinc glycerate,QA,"Staphylococcus aureus; MIC of zinc glycerate alone for Staphylococcus aureus, used for SI",>1283 ppm
same,MIC for Staphylococcus aureus,Staphylococcus aureus; [5],> 768 ppm
same,QA,"Alternaria alternata; MIC of zinc glycerate alone for Alternaria alternata, used for SI",>788 ppm
same,MIC for Alternaria alternata,Alternaria alternata; [5],> 768 ppm
same,QA,Candida albicans; MIC of zinc glycerate alone for Candida albicans,>768 ppm
same,MIC for Candida albicans,"Candida albicans; metal carboxylate without BIT, zinc ethylhexanoate-BIT series (Example 16, Table 31)",> 780 ppm
same,MIC for Candida albicans,Candida albicans; [5],> 768 ppm
